Test results from US9340536B2, “Multicomponent crystals comprising dasatinib and selected co-crystal formers” (BASF SE, priority 2012, dated 2016).
Values after ≈ are worked out from the molar mass of the structure shown.

What was measured:
[1] = estimated by Roy et al., Cryst. Growth & Design 2012 (12), 2122-2126; cited from earlier work
[2] = Aqueous solubility determination (suspension in pure water, HPLC); conditions: 25 °C
Protocol: Solubility Determinations:
Solubility determinations were carried out in pure water at 25±2° C. Suspensions with about 10 mg co-crystal in 0.5 mL water were prepared an equilibrated for two hours before the solution phase was filtered off and tested by HPLC.
HPLC was carried out on an Agilent 1100 HPLC chromatograph equipped with a UV-vis detection unit. […] The column type used was a Waters XTerra MS C18, 250×4.6 mm, 5 μm (FK-CC14). The method as referenced above is an isocratic method using an aqueous ammonium acetate/acetic acid and methanol with a ratio of 55/45. The applied flow rate was 1.0 mL per minute, the injection volume was 20 microliter and the detection wavelength was 321 nm.

Q: What does the source list for Cc1nc(Nc2ncc(C(=O)Nc3c(C)cccc3Cl)s2)cc(N2CCN(CCO)CC2)n1 [Dasatinib free base anhydrous form, N-(2-chloro-6-methylphenyl)-2-[[6-[4-(2-hydroxyethyl)-1-piperazinyl]-2-methyl-4-pyrimidinyl]amino]-5-thiazolecarboxamide]?
A: ratio of the equilibrium solubility of anhydrous Dasatinib free base to Dasatinib monohydrate free base [1]: about 2.4; solubility [2]: ~0.9 µg/mL (≈ 1.84 µM)

Q: Which solubility at 2 h ([2]; pure water, thermodynamic from solid) does the source give for Cc1nc(Nc2ncc(C(=O)Nc3c(C)cccc3Cl)s2)cc(N2CCN(CCO)CC2)n1 [Dasatinib free base monohydrate, N-(2-chloro-6-methylphenyl)-2-[[6-[4-(2-hydroxyethyl)-1-piperazinyl]-2-methyl-4-pyrimidinyl]amino]-5-thiazolecarboxamide] here?
A: Its solubility at 2 h is 0.36 µg/mL.
